{
  "source": "patent US12527781B2",
  "about": "“Treatment of neurodegenerative conditions by disruption of Rhes” (The Regents of the University of California, priority 2017, dated 2026)",
  "key": {"[1]": {"tested_on": "rTg4510 mouse", "experiment": "nest building / nest shredding behaviour in rTg4510 mice", "assay_type": "in vivo", "settings": "prolonged oral 80 mg/Kg/day", "excerpt": "FIG. 2. FIG. 2 is a boxplot depicting qualitative scores for mice in shredding nest material for control mice and in the tau mouse model rTg4510 expressing human mutant tau P301L, with efficient shredding scored at 3.5 or higher. Control litter-mates where able to shred their nest material efficiently while rTg4510 mice lost their ability in an age-related matter (score less than 1).\nAs transgenic mice age, they display progressive worsening that begins with impaired marble burial and nest shredding and by 30 weeks progresses to hyperexcitability, restlessness in response to human approach and obsessive circling. […] Nest building was assessed at 20 weeks. […] At five weeks, littermate controls and transgenic mice produced nests with similar scores."}, "[2]": {"tested_on": "lysosomal protein degradation", "experiment": "proteolysis of long-half-life proteins after 3H-leucine pulse", "assay_type": "cell-based", "settings": "48 h pulse with 3H-leucine; NH4Cl and leupeptin present", "protocol": "To assess this possibility, proteolysis of long-half-life proteins was evaluated after a long pulse (48 h) with ^3H-leucine."}, "[3]": {"tested_on": "rTg4510 mouse", "experiment": "tau pathology in rTg4510 mice (MC1 immunoreactivity, coronal brain area, Iba1 microglia)", "assay_type": "in vivo", "excerpt": "These mice develop tau tangles in the cerebral cortex by 4 months of age and in the hippocampus by 5.5 months. By 5.5 months, the mice also lose about 60% of their hippocampal CA1 neurons. Spatial memory deficits become apparent by 2.5 to 4 months of age; however electrophysiological properties of cortical neurons are detected before the accumulation of tau pathology. […] MC1 immunoreactivity, corresponding to neurofibrillary tangles throughout hippocampus, amygdala, entorhinal cortex and cerebrocortex, was first detected at ˜16 weeks and progressed by 20 weeks to a mean of 92.99±13.626 MC1^+ cells/mm^2 in the cerebral cortex, and 67.57±13.113 cells/mm^2 in the hippocampus.\nLonafarnib treatment was initiated when the animals were ten weeks old. The drug was resuspended in 20% HBCD and gavage fed, five days on and five days off at 80 mg/Kg/day. The drug was remarkably effective in reducing MC1 immunoreactivity."}, "[4]": {"tested_on": "NIH3T3 mouse fibroblasts", "experiment": "macroautophagy flux with tandem reporter mCherry-GFP-LC3B", "assay_type": "cell-based"}, "[5]": {"tested_on": "Mouse cultured neurons overexpressing Rhes", "experiment": "accumulation of phosphorylated tau in cultured neurons overexpressing Rhes", "assay_type": "cell-based", "settings": "increasing concentrations, assayed between 25 to 250 nM", "excerpt": "FIG. 1. Mouse cultured neurons overexpressing Rhes display an aberrant accumulation of phosphorylated tau. […] The two lines represent results for separate culture replications.\nMouse cultured neurons overexpressing Rhes display an aberrant accumulation of phosphorylated tau."}, "[6]": {"settings": "cited from earlier work"}},
  "note": "“Also recorded” adds a separate entry of the source.",
  "data": [
    {"smiles": "NC(=O)N1CCC(CC(=O)N2CCC([C@H]3c4ncc(Br)cc4CCc4cc(Cl)cc(Br)c43)CC2)CC1", "note": "[Lonafarnib]", "values": [
      {"measurement": "nest shredding / nest building", "setting": "[1]; absence of Doxycicline (L80), chronic intermittent from ten weeks, assessed at 20 weeks, 80 mg/kg/day", "result": "prevented the nest shredding deficit; also recorded: rescued nest building"},
      {"measurement": "nest shredding", "setting": "[1]; presence of Doxycicline (L80D)", "result": "prevented the nest shredding deficit"},
      {"measurement": "proteolysis effect in the presence of NH4Cl and leupeptin", "setting": "[2]", "result": "abolished"},
      {"measurement": "MC1+ cells/mm^2 in hippocampus", "setting": "[3]; 80 mg/Kg/day gavage, five days on and five days off from ten weeks, evaluated at 20 weeks, p=6.4×10^−3 vs vehicle", "result": "13.38±2.615", "unit": "MC1+ cells/mm^2"},
      {"measurement": "MC1+ cells/mm^2 in cortex", "setting": "[3]; 80 mg/Kg/day gavage, five days on and five days off from ten weeks, evaluated at 20 weeks, p=7.2×10^−3 vs vehicle", "result": "44.27±4.064", "unit": "MC1+ cells/mm^2"},
      {"measurement": "hippocampal microgliosis (Iba1)", "setting": "[3]; 20-week old transgenic mice vs age matched untreated transgenic mice", "result": "significantly reduced"},
      {"measurement": "coronal brain area", "setting": "[3]; chronic treatment, 20 weeks, vs vehicle and untreated age-matched transgenic mice", "result": "significantly larger"},
      {"measurement": "effect as acute intervention on tau pathology", "setting": "[3]; gavage daily for 2 weeks, 80 mg/Kg/day, 20 week-old rTg4510 mice, after tau pathology was fulminant", "result": "ineffective"},
      {"measurement": "number of autophagosomes", "setting": "[4]; at lower concentrations", "result": "remained unchanged"},
      {"measurement": "macroautophagy flux", "setting": "[4]; basal macroautophagy, NIH3T3 mCherry-GFP-LC3B", "result": "dose-dependent increase"},
      {"measurement": "macroautophagy flux in induced cells", "setting": "[4]; macroautophagy induced by paraquat or thapsigargin", "result": "did not further increase macroautophagy flux"},
      {"measurement": "accumulation of phosphorylated tau", "setting": "[5]", "result": "reduced"},
      {"measurement": "efficacy and tolerability", "setting": "[6]; dose of 100-150 mg/m2 body surface area", "result": "effective and well tolerated"},
      {"measurement": "side effects in humans", "setting": "[6]; humans", "result": "few side effects in humans"}
    ]}
  ]
}
